The source of these data is patent publication US20050124618A1, “Methods of modulating angiogenesis and cancer cell proliferation” (priority 2003, published 2005).

One may read the IC50 as the point on the concentration scale where inhibition reaches its midpoint.

One data set concerns rat cornea. In words: Rat cornea pocket angiogenesis assay (growth factor pellets). Format: in vivo. The protocol:
(i) Preparation of sustained-release polymer: Sustained-release polymer pellets were prepared by making a 1:1 mix of a 12% solution in ethanol of the polymer (Hydron polyhydroxyethylmethacrylate), with saline containing the growth factors. The growth factors bFGF, VEGF, and EGF were dissolved at a concentration of 125 ng/μl. […] 2 μl of these solutions were added to each pellet. Thus, a pellet containing 250 ng of a single growth factor was implanted at random in the right or left eye. The other eye was implanted with a pellet containing the same dose of growth factor+HET0016. In some rats the pellet contained VEGF alone and VEGF+DDMS. 20 μg of the stable 20-HETE agonist analog WIT003 was implanted in one eye to determine whether it induces angiogenesis. […] 9 μl of the 1:1 Hydron/treatment mixture was placed on the ends of 1.5-cm rods. Each pellet contained 250 ng of its respective growth factor. For bFGF we used sucralfate to stabilize and allow sustained release of this growth factor (Volkin D B et al., Biochim Biophys Acta 1993, 1203:18-26). After drying the pellets for 1 hour, they were ready to be implanted into the cornea of rats.
(ii) Pellet implantation: The rats were anesthetized IM with ketamine (80 mg/kg) and xylazine (10 mg/kg). The eyes were topically anesthetized with 0.5% proparacaine (Ophthetic, Alcon, Tex.) and the globes proptosed with a jeweler's forceps. Using an operating microscope, a central intrastromal linear keratotomy, approximately 1.5 mm in length, was performed with a surgical blade (Bard-Parker #11; Becton Dickinson, Franklin Lake, N.Y.) parallel to the insertion of the lateral rectus muscle. A curved iris spatula (No. 10093-13, Fine Science Tools, Belmont, Calif.) approximately 1.5 mm wide and 5 mm long was inserted under the lip of the incision and gently pushed through the stroma toward the temporal limbus of the eye. The distance between the limbus and the base of the pocket was kept at 1.0±0.1 mm. The pellet was advanced to the temporal end of the pocket. Antibiotic ointment (erythromycin) was applied to the anterior surface of the eye.
(iv) Quantitation of corneal neovascularization: Seven days after pellet implantation, the rats were deeply anesthetized as previously described with ketamine and xylazine. The left ventricle was cannulated and the animal was perfused with 20-25 ml saline through the left ventricle followed by 20-25 ml India ink (waterproof drawing ink, Sanford, Bellwood, Ill.). The eyes were marked for orientation, enucleated and placed in 4% formalin for 24 hours. The cornea was dissected free from the surrounding globe and underlying iris, bisected, and loosely mounted between two glass slides, thus gently flattening the cornea. These flat mounts were examined microscopically using a Nikon Diaphot Epi-fluor 2 microscope attached to a CCD video camera and the images were digitized and saved using a computer.
Neovascularization was determined by comparing total vessel length in the control and experimental eyes. Vessel length was determined by tracing each vessel from the limbus to the pellet. Total length is the sum of these values in pixels and was determined using conventional image analysis software (Sigma Scan Pro, SPSS, Chicago, Ill.)

Another data set relates to U251 human glioma cells. In words: U251 cell proliferation assay (cell counting). The data set is classed as cell-based. How it is done: Culture Conditions: Cells were routinely maintained in DMEM (Invitrogen) supplemented with 10% heat-inactivated fetal bovine serum (FBS), penicillin (10 IU/ml), streptomycin (10 μg/ml) and 10% non-essential amino acids (all purchased from Invitrogen). Cells were maintained at 37° C. in a humidified incubator containing 5% CO2. They were grown in medium containing 10% FBS, which was then replaced with serum-free medium where U251 cells grow exponentially. Treatments were initiated one day after serum removal.
(§1) Cell Proliferation Assays: Proliferation studies were performed with cultures plated at a density that ensured exponential growth for at least 5 days. Growth medium was generally replaced by serum-free medium 24 hr after plating. Cells were treated with various concentrations of a given compounds for 24 or 48 hr as described in the Methods. […] Organic solvent never exceeded 0.1% of total culture volume. Cells were harvested by exposure to 0.05% trypsin/EDTA and counted using a hemocytometer.

The subject of another data set is HUVECs. In words: Proliferation of normal HUVECs (comparison with U251). The data set is classed as cell-based, human. As to conditions: 10 μM HET0016, 48 hrs; DDMS concentration not given. How it is done: (§2) Mean values±SD from three separate experiments, each performed in triplicate, are presented. *** indicates p<0.001 from the respective control values.
as §1

The subject of data set [1] is primary human keratinocytes. In words: Proliferation of primary human keratinocytes (comparison with U251). The data set is classed as cell-based. As to conditions: 10 μM HET0016, 48 hrs; DDMS concentration not given. The protocol:
as §2, §1

A further data set concerns CYP4A11 mRNA. In words: RT-PCR of CYP4A11 mRNA in U251 cultures. The data set is classed as cell-based, human. The note with it: 100 μM DDMS. How it is done:
EtOH-treated cultures were used as solvent controls. Briefly, total RNA was isolated with Trizol reagent (Invitrogen) and 1-2 μg RNA was used to synthesize cDNA using a First Strand synthesis kit (Invitrogen). We used PCR primers that specifically recognize CYP4A11, and β-actin-specific primers. A 1 μCi ^32P per sample was added to Platinum PCR Supermix (Invitrogen). The PCR conditions used to amplify CYP4A 11 and β-actin consisted of a precycle of 95° C for 3 min followed by 35 cycles of 95° C for 45 s, 52° C. for 30 s, and 72° C. for 2 min, with final extension at 72° C. for 10 min. The primers used were: β-actin forward primer, 5′-TGCGTGACATTAAGGAGAAG-3′ (SEQ ID NO:3); β-actin reverse primer, 5′-GCT CGT AGC TCT TCT CCA-3′ (SEQ ID NO:4); CYP4A11 forward primer, 5′-CCACCTGGACCAGAGGCCCTACACCACC-3′ (SEQ ID NO:5); CYP4A11 reverse primer, 5′-AGGATATGGGCAGACAGGAA-3′(SEQ ID NO:6). PCR products were subjected to electrophoresis in 5% bis-acrylamide gels and visualized by autoradiography.

The subject of a further data set is 9L rat gliosarcoma cells. In words: 9L cell proliferation assay (cell counting). Format: cell-based. The protocol:
Culture Conditions: 9L rat gliosarcoma cells were purchased from ATC (Gaithersburg, Md.) and were maintained in DMEM (Invitrogen) supplemented with 10% heat-inactivated fetal bovine serum (FBS), penicillin (10 IU/ml), streptomycin (10 μg/ml) and 10% non-essential amino acids (all purchased from Invitrogen). Cells were maintained at 37° C. in a humidified incubator containing 5% CO2. They were grown in medium containing 10% FBS, which was then replaced with serum-free medium (give type and source) where 9L cells grow exponentially.
Cell Proliferation Assays: Proliferation studies were performed with cultures plated at a density that ensured exponential growth for at least 5 days. Growth medium were generally replaced by serum free medium 24 hr after plating. […] The concentration of the ethanol added to the media never exceeded 0.1%. Cells were harvested by exposure to a solution of 0.05% Trypsin/EDTA and counted using a hemocytometer.

The next data set has as its system CYP4A. As to conditions: read-out: IC50 for inhibition of CYP4A enzyme activity; cited from earlier work.

Entries after “also recorded” stand apart in the source; their conditions may differ.

In the case of `CS(=O)(=O)NC(=O)CCCCCCCCCC=C(Br)Br` [DDMS, dibromododecenyl methylsulfonimide], the “angiogenic response to inhibitor alone” value in the data set with rat cornea (20 μg HET0016 or 10 μg DDMS per pellet, no growth factor) was “Neither HET0016 nor DDMS alone elicited a response different from saline”. Further, the “effect on the angiogenic response to VEGF” value in the data set with rat cornea (VEGF 250 ng/pellet + 10 μg DDMS) was “as effective as 20 μg HET0016; also recorded: completely inhibits the angiogenic response; also recorded: abolished; also recorded: inhibit angiogenic responses to VEGF”. Further, the “blockade of U251 cell proliferation” value in the data set with U251 human glioma cells (DDMS, concentration not given) was “about 60%”. Also, the “concentration dependence of inhibition of U251 proliferation” value with U251 human glioma cells (various concentrations) is recorded as “inhibited the proliferation of U251 cancer cells in a dose-dependent manner; also recorded: inhibited the proliferation of U251 cells in a concentration dependent manner”. The “effect on basal growth or proliferation of normal HUVECs” value with HUVECs was “Neither DDMS or HET0016 had any effect”. Moreover, the “effect on basal growth or proliferation of primary human keratinocytes” value in data set [1] is given as “Neither DDMS or HET0016 had any effect”. Also, the CYP4A11 transcript levels result in the data set on CYP4A11 mRNA is reported as “not affected”. For the same compound, the “effect on 9L cell number” value with 9L rat gliosarcoma cells (DDMS 10 μM) was “significant reduction in cell number”. In the data set on 9L rat gliosarcoma cells (DDMS, concentration not given), the “inhibition of 9L cell proliferation” value turned out to be 60%. Also, the half-inhibitory concentration (IC50) in the data set with CYP4A was about 10 µM.
